Patent publication US12137691B2, “Method for treating plant seed” (RIJK ZWAAN ZAADTEELT EN ZAADHANDEL B.V., priority 2018, dated 2024)

Experiments:
[1] = tested on: Pythium irregulare isolate 779-2010; assay: Germination of hot water treated spinach seed and survival of seedlings in soil inoculated with Pythium irregulare; type: in vivo; details: for effect on the health of the growing plants: coating with only vitamin C (175 or 350 μg per seed)
Method: A solution of an iron salt, such as for instance Fe(II)SO4, and vitamin C in water is prepared by stirring of the chemicals until a clear, colorless solution is obtained.
A rotary coater is charged with seeds and the iron salt with vitamin C solution is added to the seeds via a spinning disk.
The seeds are dried after coating at 25° C./35 RH until the moisture in the seed is equal to the moisture of the seed before treatment with the iron salt solution.
The effect of the iron salt solution prepared in Example 1 on both germination and survival against Pythium is investigated on hot water treated spinach seeds of the variety Mandril. A suitable protocol for the hot water treatment is described in Extension Factsheet Ohio State University; Sally A. Miller and Melanie L Lewis Ivey; “Hot Water Treatment of Vegetable Seeds to Eradicate Bacterial Plant Pathogens in Organic Production Systems”.
The hot water treated spinach seeds were coated with an Fe(II)SO4 coating supplemented with vitamin C. Two different concentrations of Fe(II)SO4 and vitamin C in the coating solution were used: 1 μg Fe(II)SO4 per seed and 1.1 molar equivalents (Meq.) vitamin C, and 250 μg Fe(II)SO4 per seed and 1.1 Meq. vitamin C. As a control, hot water treated seeds without coating and untreated seeds were used.
Seeds were sown in trays. Germination of the seeds was assessed in trays without any inoculum. The effect of the coating on the survival of seedlings was assessed in trays inoculated with Pythium irregulare isolate 779-2010.
(§1) Trays without the inoculum were prepared by mixing+/−10 L of sowing soil with 1 L of tap water in white trays. In total, 117 sowing holes were made in the trays with a press. To prevent any interaction between treatments, only 1 treatment per tray was sown. For each treatment, 3 replicates of 117 seeds were sown. The seeds were topped with two cups (diameter 12 cm) of sowing soil containing 5 grams of inoculum media. Trays were placed in a controlled climate cell at 20° C., LID->14/10 and a RH of 60%. The number of germinated seeds was counted at 7 days, and the amount of surviving seedlings was counted 7 and 14 days after sowing and inoculation. Trays were physically separated from trays containing Pythium inoculum, to prevent cross-contamination.
The inoculum was prepared by growing Pythium irregulare on fresh V8 plates for 3 days at 28° C. After incubation, the spores and mycelium were harvested by adding 20 ml of sterile PBS to the plate and scraping it with a sterile spatula. This inoculum was added to the sowing soil.
as §1, with “with” for “without the”, “treatment 3,” for “treatment, 3”, “(mixed thoroughly in a bucket before topping off).” for “media.”, “inoculation.” for “inoculation. Trays were physically separated from trays containing Pythium inoculum, to prevent cross-contamination.”
The experiment of Example 2 was repeated with the following modifications:
the spinach seed used are of the varieties Platypus and Meerkat […]

[2] = tested on: Rhizoctonia isolate AU 14/243; assay: In vitro growth inhibition on PDA agar plates with imbedded coated spinach seeds, Rhizoctonia; type: cell-based
Method: FIG. 4A is a schematic picture of an with Rhizoctonia-infected agar plate (1) comprising untreated seeds (2) and seeds coated with 500 μg/seed Fe(II)SO4 (3). Plates were inoculated with Rhizoctonia in the center of the plates (4). The growth of Rhizoctonia was measured after 1 day, 2 days, and 4 days post-inoculation (dpi).
(§2) PDA agar plates were prepared in which spinach seeds of the variety Platypus coated with 250 μg Fe(II)SO4 per seed and 1.1 Meq. vitamin C, 500 μg Fe(II)SO4 per seed and 1.1 Meq. vitamin C, or 500 μg Fe(II)SO4 per seed, were imbedded and inoculated with Rhizoctonia isolate AU 14/243 or Fusarium oxysporum isolate MAFF103063.

[3] = tested on: Fusarium oxysporum isolate MAFF103063; assay: In vitro growth inhibition on PDA agar plates with imbedded coated spinach seeds, Fusarium; type: cell-based
Method: FIG. 4B is a schematic picture of an with Fusarium-infected agar plate (1) comprising untreated seeds (2) and seeds coated with 500 μg/seed Fe(II)SO4 (3). The growth of Fusarium was measured after 2 days, 4 days, and 7 days post-inoculation (dpi).
as §2

[4] = tested on: damping-off; assay: Beetroot seed sown in a field known to suffer from damping-off, healthy seedlings; type: in vivo; details: beetroot variety Zeppo, 500 μg Fe(II)SO4 per seed, no vitamin C, 14 and 21 days after sowing
Method: FIG. 6 is a graph showing the effect of treatment of seeds of the beetroot variety Zeppo with 500 μg/seed of Fe(II)SO4. The effect is expressed in the number of seedlings that are still alive and healthy 14 and 21 days after sowing.
Seed of the beetroot variety Zeppo was coated with 500 μg/Fe(II)SO4 per seed as described in Example 1, except that no vitamin C was added. The seed was sown in a field known to suffer from damping-off. The number of healthy seedlings was determined 14 days and 21 days after sowing.

[5] = tested on: damping-off; assay: Cornsalad seed sown in soil from a field known to suffer from damping-off, healthy seedlings; type: in vivo; details: 500 μg Fe(II)SO4 per seed, no vitamin C, 7, 11, 17 and 24 days after sowing
Method: FIG. 7A is a graph showing the effect of hot water treatment of cornsalad seeds, and subsequent treatment with 500 μg/seed of Fe(II)SO4. The effect is expressed in the percentage of seedlings that are still alive and healthy 7, 11, 17 and 24 days after sowing in soil known to suffer from damping-off.
Cornsalad seed was coated with 500 μg/Fe(II)SO4 per seed as described in Example 1, except that no vitamin C was added. The seed was sown in soil from a field known to suffer from damping-off. The percentage of healthy seedlings was determined 7, 11, 17 and 24 days after sowing.

[6] = tested on: P. irregulare; assay: Cornsalad seed sown in soil inoculated with P. irregulare, healthy seedlings; type: in vivo, Pythium irregulare; details: 500 μg Fe(II)SO4 per seed, no vitamin C, 7, 11, 17 and 24 days after sowing
Method: FIG. 7B is a graph showing the effect of hot water treatment of cornsalad seeds, and subsequent treatment with 500 μg/seed of Fe(II)SO4. The effect is expressed in the percentage of seedlings that are still alive and healthy 7, 11, 17 and 24 days after sowing in soil inoculated with P. irregulare.
The experiment was also performed on the cornsalad seed when sown in soil inoculated with P. irregulare, prepared as described in Example 2. The percentage of healthy seedlings was determined 7, 11, 17 and 24 days after sowing.

[7] = tested on: fungal growth; assay: Reducing fungal growth on plant seedlings and plants (general statement); type: in vivo; details: general statement in the description, no test details
[8] = 4 days post inoculation, 250 μg Fe(II)SO4 per seed and 1.1 Meq. vitamin C, or 500 μg Fe(II)SO4 per seed alone
[9] = Platypus seed, 250 μg Fe(II)SO4 per seed and 1.1 Meq. vitamin C, or 500 μg Fe(II)SO4 per seed alone

SMILES: O=S(=O)([O-])[O-].[Fe+2] [Fe(II)SO4, iron(II)sulfate]
- dose-effect response (seedlings alive and healthy 14 days after sowing) ([1]; spinach varieties Finwhale and Mandril, hot water treated, 50, 100, 150, 200 and 250 μg Fe(II)SO4 per seed): linear dose-effect response
- doses effective to increase the germination and survival of hot-water treated seed ([1]; spinach varieties Finwhale and Mandril, dose per seed, dose to match untreated seeds depends on variety and/or batch): ≥ 50 µg
- effect on the health of the plants ([1]; spinach varieties Platypus and Meerkat, hot water treated, 250 or 500 μg Fe(II)SO4 per seed, with or without 1.1 Meq. vitamin C): positive effect
- growth of the Rhizoctonia isolate over the plate [2, 8]: the isolate covered the whole plate
- inhibition of Rhizoctonia growth (weaker when compared to 500 μg Fe(II)SO4 and vitamin C) [2, 9]: Inhibition was also observed
- zone of inhibition around the coated seeds, Rhizoctonia ([2]; after 4 days post-inoculation, 500 μg/seed Fe(II)SO4, not around untreated seeds): zone of inhibition (5) is still visible
- growth of the Fusarium isolate over the plate [3, 8]: the isolate covered the whole plate
- inhibition of Fusarium growth (weaker when compared to 500 μg Fe(II)SO4 and vitamin C) [3, 9]: Inhibition was also observed
- zone of inhibition around the coated seeds, Fusarium ([3]; after 7 days post-inoculation, 500 μg/seed Fe(II)SO4, not around untreated seeds): zone of inhibition (5) is still visible
- protection of beetroot against damping-off (healthy seedlings) [4]: protects beetroot against damping-off
- protection of cornsalad against damping-off (healthy seedlings) [5]: protects cornsalad against damping-off
- protection of cornsalad against damping-off (healthy seedlings) [6]: protects cornsalad against damping-off
- effects in reducing fungal growth on the plant seedlings and plants [7]: good effects

SMILES: [Br-].[Br-].[Fe+2] [Iron(II)bromide]
- effects in reducing fungal growth on the plant seedlings and plants [7]: good effects

SMILES: O=S(=O)([O-])[O-].O=S(=O)([O-])[O-].[Fe+2].[NH4+].[NH4+] [iron(II)ammonium sulfate]
- effects in reducing fungal growth on the plant seedlings and plants [7]: good effects

SMILES: [Cl][Fe][Cl] [iron(II)chloride]
- effects in reducing fungal growth on the plant seedlings and plants [7]: good effects

SMILES: O=S(=O)([O-])[O-].O=S(=O)([O-])[O-].[Fe+3].[NH4+] [iron(III)ammonium sulfate]
- effects in reducing fungal growth on the plant seedlings and plants [7]: good effects

SMILES: [Br-].[Br-].[Br-].[Fe+3] [iron(III)bromide]
- effects in reducing fungal growth on the plant seedlings and plants [7]: good effects

SMILES: [Cl][Fe]([Cl])[Cl] [iron(III)chloride]
- effects in reducing fungal growth on the plant seedlings and plants [7]: good effects

SMILES: O=S(=O)([O-])[O-].O=S(=O)([O-])[O-].O=S(=O)([O-])[O-].[Fe+3].[Fe+3] [iron(III)sulfate]
- effects in reducing fungal growth on the plant seedlings and plants [7]: good effects

SMILES: O=C1O[C@H]([C@@H](O)CO)C(O)=C1O [vitamin C, reference compound]
- effect on the health of the growing plants ([1]; spinach variety Meerkat, hot water treated): not observed
- effect on the health of the growing plants ([1]; spinach variety Platypus, hot water treated): some effect
